Like-named read-outs stand apart in the source and are kept apart here.
Tests used:
[1] = target: ecNadD (Escherichia coli (strain K12), UniProt P0A752); test: biochemical; type: biochemical; conditions: for IC50: IC50 ecNadD; for inhibition at 100 µM: read-out: INHIBITION (%) E. coli
[2] = target: baNadD (Bacillus anthracis, UniProt C3L5T6); test: biochemical; type: biochemical; conditions: for inhibition at 50 µM: read-out: INHIBITION (%) B. anthracis
Sequence of baNadD (C3L5T6 whole entry, looked up): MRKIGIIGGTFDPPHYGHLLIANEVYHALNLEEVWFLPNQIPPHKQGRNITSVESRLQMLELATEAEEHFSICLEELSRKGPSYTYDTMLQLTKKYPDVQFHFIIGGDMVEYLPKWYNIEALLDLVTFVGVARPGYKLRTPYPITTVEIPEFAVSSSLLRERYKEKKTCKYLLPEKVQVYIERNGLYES

Structure (SMILES)	IC50 [1]	inhibition at 100 µM [1]	inhibition at 50 µM [2]	IC50 ([2]; IC50 baNadD)	other results
O=C(CCC(=O)Nc1cccc(Br)c1)N/N=C/c1c2ccccc2cc2ccccc12 [01_01]	6 µM	90%	81%	–	IC50 ([2]; read-out: IC50 baNadD): 4 µM
O=C(CCC(=O)Nc1ccccc1Br)N/N=C/c1c2ccccc2cc2ccccc12 [01_04]	15 µM	79%	100%	–	IC50 ([2]; read-out: IC50 baNadD): 25 µM
CC(/C=N/NC(=O)CCC(=O)Nc1ccc(Br)cc1)c1ccc2ccccc2c1 (stereo not drawn) [01_05]	88 µM	78%	76%	–	–
O=C(CCC(=O)Nc1ccc(I)cc1)N/N=C/c1cccc(Br)c1 [01_06]	–	78%	54%	–	–
Cc1ccc(NC(=O)CCC(=O)N/N=C/c2cccc(Br)c2)cc1 [01_08]	–	75%	74%	–	–
O=C(CCC(=O)Nc1ccc(Br)cc1)N/N=C/c1ccc(Br)cc1 [01_09]	–	74%	68%	–	–
O=C(CCC(=O)Nc1cccc(Br)c1)N/N=C/c1cccc(Br)c1 [01_10]	–	72%	53%	–	–
COc1ccc(/C(C)=N/NC(=O)CNc2cc(Br)c(C)c(Br)c2)c(OC)c1 [01_11]	–	70%	86%	–	IC50 ([2]; read-out: IC50 baNadD): 30 µM
O=C(CCC(=O)Nc1ccc(Br)cc1)N/N=C/C=C/c1ccccc1 [01_12]	–	68%	75%	48 µM	–
O=C(CCC(=O)Nc1ccc(Br)cc1)N/N=C/c1cccc(Br)c1 [01_13]	–	67%	29%	–	IC50 ([2]; read-out: IC50 baNadD): 170 µM
Cc1ccc(/C=N/NC(=O)CCC(=O)Nc2ccc(C)cc2)cc1 [01_14]	–	60%	70%	–	–
O=C(CCC(=O)Nc1ccc(Br)cc1)N/N=C/c1ccc(F)cc1 [01_15]	–	47%	22%	–	IC50 ([2]; read-out: IC50 baNadD): 122 µM
O=C(CCC(=O)Nc1ccc(F)cc1)N/N=C/c1ccc(O)cc1 [01_16]	–	42%	29%	–	–
O=C(CCC(=O)Nc1cccc(Br)c1)N/N=C/c1ccc(I)cc1 [01_17]	–	41%	35%	–	–
C/C(=N/NC(=O)CCC(=O)Nc1ccc(Br)cc1)c1ccc(Br)cc1 [01_18]	–	38%	49%	–	–
O=C(CCC(=O)Nc1ccccc1Cl)NN=Cc1ccc(C=NNC(=O)CCC(=O)Nc2ccccc2Cl)cc1 [1—02—1, N-(2-Chloro-phenyl)-3-(4-{[3-(2-chloro-phenylcarbamoyl)-propionyl]-hydrazonomethyl}-benzylidene-hydrazinocarbonyl)-propionamide]	13 ± 2 µM	–	–	–	ecNadD inhibition (qualitative) [1]: effective; baNadD inhibition (qualitative) [2]: effective; improvement in activity compared to precursors 1_13 and 1_15 [2]: more than 10 fold
O=C(O)CNN=C(C(=O)CCC(=O)Nc1ccccc1Cl)c1ccc(C=NN(CC(=O)O)C(=O)CCC(=O)Nc2ccccc2Cl)cc1 [1—02—2, {N′-(4-{Carboxymethyl-[3-(2-chloro-phenylcarbamoyl)-propionyl]-hydrazonomethyl}-benzylidene)-N-[3-(2-chloro-phenylcarbamoyl)-propionyl]-hydrazino}-acetic acid]	–	–	–	–	inhibitory activity against baNadD [2]: did not inhibit
O=C(O)CN(N=Cc1cccc2ccccc12)C(=O)CCC(=O)Nc1ccccc1Cl [1—02—3, {N-[3-(2-Chloro-phenylcarbamoyl)-propionyl]-N′-naphthalen-1-ylmethylene-hydrazino}-acetic acid]	–	–	–	> 200 µM	–
Nc1c(C(=O)Nc2cc(F)ccc2F)sc2nc(-c3cccs3)ccc12 [03_01]	25 µM	–	–	25 µM	INHIBITION (%) E. coli [1]: 100% 25; INHIBITION (%) B. anthracis [2]: 100% 25
Nc1c(C(=O)Nc2cc(Cl)cc(Cl)c2)sc2nc(-c3cccs3)ccc12 [03_03]	64 µM	93%	90%	21 µM	–

Structure (SMILES)	IC50 [1]	inhibition at 100 µM [1]	inhibition at 50 µM [2]	IC50 ([2]; IC50 baNadD)	other results
Nc1c(C(=O)Nc2ccc(Cl)cc2Cl)sc2nc(-c3ccncc3)ccc12 [03_04]	21 µM	84%	79%	21 µM	–
Nc1c(C(=O)Nc2ccc(F)cc2)sc2nc(-c3ccncc3)ccc12 [03_06]	> 200 µM	80%	40%	> 200 µM	–
Nc1c(C(=O)Nc2ccc(F)cc2F)sc2nc(-c3cccs3)ccc12 [03_07]	44 µM	69%	83%	18 µM	–
Nc1c(C(=O)Nc2ccc(Cl)cc2)sc2nc(-c3ccc(F)cc3)ccc12 [03_08]	> 200 µM	68%	28%	> 200 µM	–
Nc1c(C(=O)Nc2ccc(Cl)c(Cl)c2)sc2nc(-c3cccs3)ccc12 [03_09]	–	60%	63%	–	–
Nc1c(C(=O)Nc2cccc(F)c2)sc2nc(-c3ccc(F)cc3)ccc12 [03_10]	–	56%	60%	–	–
Nc1c(C(=O)Nc2ccc(Cl)cc2Cl)sc2nc(-c3cccs3)ccc12 [03_11]	30 µM	54%	90%	13 µM	–
Nc1c(C(=O)Nc2cccc(Cl)c2)sc2nc(-c3cccs3)ccc12 [03_12]	71 µM	53%	89%	15 µM	–
Nc1c(C(=O)Nc2ccc(F)c(Cl)c2)sc2nc(-c3ccc(F)cc3)ccc12 [03_13]	–	52%	26%	–	–
Nc1c(C(=O)Nc2ccc(F)c(F)c2)sc2nc(-c3cccs3)ccc12 [03_14]	117 µM	46%	92%	38 µM	–
Nc1c(C(=O)Nc2cccc(Cl)c2)sc2nc(-c3ccc(F)cc3)ccc12 [03_16]	50 µM	46%	83%	35 µM	–
Nc1c(C(=O)Nc2cc(F)ccc2F)sc2nc(-c3cccs3)ccc12 [03_18]	35 µM	–	–	14 µM	INHIBITION (%) E. coli [1]: 41% 35; INHIBITION (%) B. anthracis [2]: 71% 14
Nc1c(C(=O)Nc2ccc(Cl)cc2F)sc2nc(-c3ccc(F)cc3)ccc12 [03_19]	–	32%	61%	–	–
Nc1c(C(=O)Nc2c(Cl)cccc2Cl)sc2nc(-c3cccnc3)ccc12 [03_20]	> 200 µM	24%	11%	> 200 µM	–
NC(=O)c1sc2nc(-c3ccc(F)cc3)cc(-c3ccccc3)c2c1N [03_21]	–	22%	58%	–	–
Nc1c(C(=O)Nc2ccc(F)c(Cl)c2)sc2nc(-c3ccncc3)ccc12 [03_22]	100 µM	21%	83%	39 µM	–
Nc1c(C(=O)Nc2ccc(F)c(F)c2)sc2nc(-c3ccc(F)cc3)ccc12 [03_24]	> 200 µM	9%	5%	> 200 µM	–
Nc1c(C(=O)Nc2ccc(F)cc2)sc2nc(-c3ccc(F)cc3)ccc12 [03_25]	–	8%	1%	–	–
Nc1c(C(=O)Nc2ccc(F)c(F)c2)sc2nc(-c3ccncc3)ccc12 [03_26]	–	7%	23%	–	–
Nc1c(C(=O)Nc2ccc(F)cc2F)sc2nc(-c3ccncc3)ccc12 [03_27]	–	0%	20%	–	–

Structure (SMILES)	IC50 [1]	inhibition at 100 µM [1]	inhibition at 50 µM [2]	IC50 ([2]; IC50 baNadD)	other results
Nc1c(C(=O)Nc2cc(Cl)cc(Cl)c2)sc2nc(-c3ccncc3)ccc12 [03_28]	–	0%	0%	–	–
Nc1c(C(=O)Nc2ccc(Cl)cc2)sc2nc(-c3ccncc3)ccc12 [03_29]	–	0%	0%	–	–
Cc1ccc(N/C=C2\C(=O)Nc3ccccc32)cc1Cl [15_01]	> 200 µM	24%	37%	> 200 µM	–
Cc1ccc(N/C=C2\C(=O)Nc3ccccc32)c(C)c1 [15_02]	–	20%	29%	–	–
CN(C)c1ccc(N/C=C2\C(=O)Nc3ccccc32)cc1 [15_03]	–	19%	27%	–	–
Cc1ccc(C)c(N/C=C2\C(=O)Nc3ccccc32)c1 [15_04]	–	18%	26%	–	–
O=C1Nc2ccccc2/C1=C/NCc1cccnc1 [15_05]	–	17%	23%	–	–
O=C1Nc2ccccc2/C1=C/Nc1ccc(F)cc1 [15_06]	–	15%	49%	–	–
O=C1Nc2ccccc2/C1=C/Nc1cccc(Cl)c1 [15_07]	–	15%	45%	–	–
COC(=O)c1ccccc1N/C=C1\C(=O)Nc2ccccc21 [15_08]	–	14%	0%	–	–
O=C1Nc2ccccc2/C1=C/Nc1ccc(Br)cc1 [15_09]	> 200 µM	13%	60%	111 µM	–
Cc1cccc(N/C=C2\C(=O)Nc3ccccc32)c1C [15_10]	–	13%	26%	–	–
CSc1ccc(N/C=C2\C(=O)Nc3ccccc32)cc1 [15_12]	–	12%	25%	–	–
Cc1c(Cl)cccc1N/C=C1\C(=O)Nc2ccccc21 [15_13]	–	12%	36%	–	–
Cc1ccc(N/C=C2\C(=O)Nc3ccccc32)cc1C [15_14]	88 µM	12%	70%	74 µM	–
O=C1Nc2ccccc2/C1=C/Nc1cccnc1 [15_15]	–	12%	10%	–	–
Sc1nnc(-c2ccncc2)n1-c1ccccc1Cl [compound 042]	–	–	–	–	[…]. coli [1]: 19%
Nc1n[nH]c(N)c1/N=N/c1ccccc1 [compound 271]	–	–	–	–	[…]. coli [1]: 0%
Nc1n[nH]c(N)c1/N=N/c1ccccc1 [compound 272]	–	–	–	–	[…]. anthracis [2]: 23%
O=C(CCS(=O)(=O)c1ccc(Br)s1)NCc1cccs1 [compound 285]	–	–	–	–	[…]. coli [1]: 0%

Source: patent US8785499B2 (priority 2009, dated 2014)
